Results from patent US20120052122A1, “Treatment Of Chronic Obstructive Pulmonary Disease With Phosphodiesterase-4 Inhibitor” (Nycomed GmbH, priority 2010, published 2012).
Several values for one entry are separate records, joined by “and”; a condition that tells them apart may be missing. Equal values may be shown once.

Columns and labels:
PDE3 = PDE3 inhibition; format: biochemical; conditions: at the doses administered
COPD patients = assay: Adverse events in 14 double-blind, placebo-controlled Phase II/III studies; format: in vivo, human; conditions: 14 Phase II/III studies, N = 6563
From the text: The population was 25 to 93 years old (median age 64), 72% were male, and 89% were white.

Solubility in water = format: physicochemical; conditions: drug substance
patients with COPD [1] = conditions: Reference 13; cited from earlier work
[2] = tested on: patients with COPD and chronic cough and sputum production; conditions: in vivo
[3] = Standard battery of genotoxicity assays in vitro and in vivo
[4] = in vivo
[5] = tested on: bronchial ciliary activity; assay: Bronchial ciliary activity in vitro
clinical = conditions: human, in vivo
animal models = assay: Smoke-induced lung damage animal models; conditions: animal models in vivo
[6] = tested on: patients with COPD and chronic cough and sputum production; assay: M2-125 study: 52-week placebo-controlled trial of oral roflumilast 500 μg once a day
[7] = Blood-brain barrier penetration of radiolabeled roflumilast in rats
[8] = tested on: cytokines and reactive oxygen species from cells and lung tissue; assay: Release of inflammatory mediators in experimental animals; conditions: cells and lung tissue in vitro and in vivo
[9] = tested on: endotoxin challenged healthy volunteers; assay: Endotoxin challenge in healthy volunteers
[10] = Excretion into milk of lactating rats; format: in vivo, rat; conditions: roflumilast and/or its metabolites
From the text: Excretion of roflumilast and/or metabolites into human milk is probable. Roflumilast should not be used during breast-feeding.

patients with COPD [11] = assay: Sputum cell counts in patients with COPD
experimental animals = assay: Infiltration of leukocytes into the lungs of experimental animals
rabbits = assay: Embryo-fetal development studies in rabbits; format: in vivo, rabbit; conditions: up to 0.8 mg/kg/day
[12] = tested on: unselected patients with severe COPD; conditions: Reference 14; cited from earlier work
CYP 2B6 = CYP 2B6 induction in vitro
[13] = Non-clinical safety pharmacology and toxicity studies
From the text: Non-clinical data reveal no special hazard for humans based on conventional studies of safety pharmacology and repeated dose toxicity. Furthermore, there is no evidence of immunotoxic, skin sensitizing or phototoxic potential.

[14] = tested on: CYP 1A2, 2A6, 2B6, 2C8, 2C9, 2C19, 2D6, 2E1, 3A4/5, or 4A9/11
[15] = human, in vivo
[16] = Human spermatogenesis study; conditions: 500 mcg; 3-month treatment and 3-month off-treatment period
hamster = assay: Two year hamster carcinogenicity studies; format: in vivo
Method: No other treatment-related neoplastic findings were observed. Overall, the tumor-free level in the animals was 4 mg/kg/day.

mouse = assay: Labor and delivery in the mouse; format: in vivo
From the text: Roflumilast should not be used during labor and delivery.

## O=C(Nc1c(Cl)cncc1Cl)c1ccc(OC(F)F)c(OCC2CC2)c1 [Roflumilast, N-(3,5-dichloropyridin-4-yl)-3-cyclopropylmethoxy-4-difluoromethoxy-benzamide]
PDE3
  Inhibitory effect on PDE3: no appreciable inhibitory effect
COPD patients; 250 mcg or 500 mcg per day
  Treatment-emergent adverse event Diarrhea, incidence: 10%
COPD patients
  Treatment-emergent adverse event Abdominal pain, incidence: 2%
  Treatment-emergent adverse event Back pain, incidence: 3%
  Treatment-emergent adverse event Decreased appetite, incidence: 2%
  Treatment-emergent adverse event Dizziness, incidence: 2%
  Treatment-emergent adverse event Gastritis, incidence: 1%
  Treatment-emergent adverse event Headache, incidence: 4%
  Treatment-emergent adverse event Insomnia, incidence: 2%
  Treatment-emergent adverse event Nausea, incidence: 5%
  Treatment-emergent adverse event Tremor, incidence: 2%
  Treatment-emergent adverse event Weight decreased, incidence: 6%
Solubility in water
  Solubility in water: poorly soluble
Patients with COPD [1]
  Airway inflammation, sputum neutrophil and eosinophil counts: reduces airway inflammation
[2]; human, 52 weeks
  Adverse event Upper respiratory tract infection, patients: 33 (4%) number (%)
[2]
  Occurrence of rhythm disturbances vs placebo: no difference
[3]
  Genotoxic potential: did not reveal a genotoxic potential
[4]; human
  Delay of tmax by food intake: one
  Plasma AUC: 28 ugxh/L
  Radioactivity recovered in the urine: about 70%
  Reduction of Cmax by food intake: approximately 40%
  Time of maximum plasma concentrations after dosing, range: 0.5 to 2 h
  Time to steady state plasma concentrations: approximately 4 days
[4]
  Effect of food intake on total PDE4 inhibitory activity: does not affect
  Time of maximum plasma concentrations after dosing: approximately one
[5]
  Bronchial ciliary activity: stimulated
clinical
  Cmax: 8.8 ng/mL
clinical; iv
  clearance: ~160 mL/min
clinical; po
  half-life: ~17 h
clinical; po, 500 ug
  bioavailability: ~80%
Animal models
  Smoke-induced destruction of lung parenchyma: reduced
[6]
  Change in C-reactive protein from baseline to last postrandomisation visit: 1.1; n = 680 mg/L
  Median time to first exacerbation (moderate or severe) [IQR]: 73.0 (26.0-195.0); days
  Median time to second exacerbation (moderate or severe) [IQR]: 188.0 (84.0-281.0) days
  Number of patients needed to treat to prevent one moderate or severe exacerbation per year: 3.6 and 3.64
  Time to mortality (mean, SD): 201.0 days
[6]; 52 weeks
  Exacerbations moderate or severe, mean rate [95% CI]: 1.21 (1.07-1.36); per patient, per year
  Exacerbations moderate, mean rate [95% CI]: 1.04 (0.92-1.18); per patient, per year
  Exacerbations severe, mean rate [95% CI]: 0.14 (0.10-0.20); per patient, per year
  Exacerbations treated with systemic corticosteroids, antibiotics, or both, mean rate [95% CI]: 1.17 (1.04-1.31); per patient, per year
[6]; 52 weeks, mean
  Change in postbronchodillator FEV1/FVC: 0.552%
  Change in prebronchodillator FEV1/FVC: 0.200%
[6]; 52 weeks, mean (SE)
  Change in postbronchodillator FEF25-75: 21 (5); n = 724 mL/s
  Change in postbronchodillator FEV1: 44 (7); n = 724 mL
  Change in postbronchodillator FVC: 58 (13); mL
  Change in postbronchodillator PEF: 1.93 (1.49); L/min
  Change in prebronchodillator FEF25-75: 15 (5); n = 730 mL/s
  Change in prebronchodillator FEV1: 33 (7); n = 730 mL
  Change in prebronchodillator FVC: 60 (14); mL
  Change in prebronchodillator PEF: 0.75 (1.45); L/min
[6]; Roflumilast vs Placebo
  Adverse event Influenza, difference: −0.99% (−2.51 to 0.53)
  Adverse event Upper respiratory tract infection, difference: −0.57% (−2.75 to 1.62)
  Change in C-reactive protein from baseline to last postrandomisation visit, difference: Difference 1.1 mg/L
  Change in postbronchodillator FEF25-75, difference: Difference 29 (18 mL/s
  Change in postbronchodillator FEV1, difference: Difference 61 (44 mL
  Change in postbronchodillator FEV1/FVC, difference: Difference 0.668%
  Change in postbronchodillator FVC, difference: Difference 103 mL
  Change in postbronchodillator PEF, difference: Difference 5.07 L/min
  Change in prebronchodillator FEF25-75, difference: Difference 25 (13 mL/s
  Change in prebronchodillator FEV1, difference: Difference 58 (41 mL
  Change in prebronchodillator FEV1/FVC, difference: Difference 0.510%
  Change in prebronchodillator FVC, difference: Difference 108 mL
  Change in prebronchodillator PEF, difference: Difference 3.85 L/min
  EQ-5D total score, difference: Difference 0.0106
  TDI focal score, difference: Difference 0.3
[6]; Roflumilast vs Placebo, listed as roflumilast
  Change in prebronchodillator FVC, difference: 108 mL
[6]; mean
  EQ-5D total score: 0.0100
[6]; mean (SE)
  TDI focal score: 0.7 (0.1);
[6]; n = 778
  Adverse event Influenza, patients: 12 (2%) number (%)
[7]
  Penetration across the blood-brain barrier: low penetration
[8]
  Release of inflammatory mediators (cytokines and reactive oxygen species): suppressed
[9]
  Influx of neutrophils and eosinophils into the airways: attenuated
[10]
  Excretion into milk: excreted into the milk
Patients with COPD [11]
  Sputum neutrophils: reduced
Experimental animals
  Infiltration of leukocytes, in particular neutrophils, into the lungs: inhibited
rabbits; oral
  Teratogenicity: not teratogenic
rabbits
  Post-implantive losses: not seen
[12]
  Frequency of exacerbations: did not significantly reduce
CYP 2B6
  Induction of CYP 2B6: weak induction
[13]
  Immunotoxic, skin sensitizing or phototoxic potential: no evidence
[14]
  Inhibition of CYP 1A2, 2A6, 2B6, 2C8, 2C9, 2C19, 2D6, 2E1, 3A4/5, or 4A9/11: do not inhibit
[15]
  Absorption or pharmacokinetics on co-administration with an antacid: did not alter
  Increase in the total PDE4 inhibition with strong CYP 1A2 inhibitors, such as fluvoxamine: 20-60%
  Interactions with inhaled salbutamol, formoterol, budesonide, oral theophylline, montelukast, digoxin, warfarin, sildenafil, midazolam and an oral contraceptive: No clinically relevant interactions
  Reduction in total PDE4 inhibitory activity with rifampicin: about 60%
  Total PDE4 inhibitory activity with CYP 3A4 inhibitors (erythromycin and ketoconazole): did not result in increases
  Total PDE4 inhibitory activity with fluvoxamine, enoxacin and cimetidine: resulted in increases
[16]
  Semen parameters or reproductive hormones: no effects
hamster; hamster, up to 16 mg/kg/day, two year
  Neoplastic findings: nasal neoplasms were caused by a drug metabolite, which is absent in humans
hamster; overall
  Tumor-free level in the animals: 4 mg/kg/day
mouse
  Oral dose with signs of tocolytic activity resulting in delivery retardation and decreased postnatal survival: ≥ 2 mg/kg/day
